Data as given in patent US20260049091A1, “2-(1,8-DIETHYL-1,3,4,9-TETRAHYDROPYRANO[3,4-B]INDOL-1-YL)-1-(4-METHYLPIPERAZIN-1-YL)ETHAN-1-ONE ETODOLAC DERIVATIVE AS EUKARYOTIC ELONGATION FACTOR 2 KINASE (EEF2K) INHIBITOR FOR TARGETED CANCER THERAPY” (BAHCESEHIR UNIVERSITESI, priority 2023, published 2026).

Experiments:
[1] = molecular target: T1, eEF2K (Homo sapiens, UniProt O00418); settings: cited from earlier work; for eEF2K inhibition (reported, in words): literature
T1 sequence (O00418 1-725): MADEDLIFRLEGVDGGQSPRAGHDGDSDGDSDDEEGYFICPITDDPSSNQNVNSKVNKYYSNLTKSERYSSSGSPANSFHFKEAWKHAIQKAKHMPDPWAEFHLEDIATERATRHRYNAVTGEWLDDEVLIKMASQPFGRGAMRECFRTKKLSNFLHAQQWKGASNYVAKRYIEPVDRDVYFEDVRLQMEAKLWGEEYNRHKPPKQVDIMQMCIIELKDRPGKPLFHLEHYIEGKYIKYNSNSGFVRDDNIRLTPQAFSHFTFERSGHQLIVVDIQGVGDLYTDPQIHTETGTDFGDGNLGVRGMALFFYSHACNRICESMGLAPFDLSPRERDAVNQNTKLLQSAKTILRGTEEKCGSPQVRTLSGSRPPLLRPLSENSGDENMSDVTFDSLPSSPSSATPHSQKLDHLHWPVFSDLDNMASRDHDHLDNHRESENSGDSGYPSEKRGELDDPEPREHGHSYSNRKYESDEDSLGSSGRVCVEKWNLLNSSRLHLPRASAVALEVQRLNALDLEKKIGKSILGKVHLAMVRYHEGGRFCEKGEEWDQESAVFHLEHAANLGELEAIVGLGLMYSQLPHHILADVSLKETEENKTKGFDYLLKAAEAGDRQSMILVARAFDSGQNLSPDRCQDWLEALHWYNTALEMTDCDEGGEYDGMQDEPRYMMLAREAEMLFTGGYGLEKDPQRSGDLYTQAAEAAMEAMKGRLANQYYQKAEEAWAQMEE

[2] = molecular target: T1, eEF2K; assay: Western blot analysis of eEF2K inhibition (p-EF2 Thr56) in MDA-MB-231 cells; format: cell-based; settings: for eEF2K inhibition potential (p-EF2 Thr56): MDA-MB-231 (TNBC) cells, 2.5 to 20 micromolar, 2 h; for eEF2K inhibition, reduced p-EF2 (Thr56) levels: MDA-MB-231 cells, 2.5 micromolar, 2 h treatment
Description: MeOH: distilled water by volume (%) (70:30) was used as the mobile phase for HPLC analysis for the inventive compound and the flow rate was set to 1 mL min^−1. Triple negative breast cancer (TNBC) cell lines (ER-, PR- and HER2-) MDA-MB-231 cells were purchased from the American Type Culture Collection (ATCC) (Manassas, VA, USA). MDA-MB-231 cells were cultured in Dulbecco's modified Eagle's medium (DMEM)/F12 supplemented with 10% FBS (Fetal Bovine Serum) and 100 U mL^−1 penicillin and streptomycin. Specific antibodies (p-EF2 (Thr56) (2331S), eEF2 (2332S), eEF2K (3692S) and GAPDH (5174S)) were purchased from Cell Signaling Technology (CST).
Western blot analysis was carried out according to previously reported studies to evaluate the eEF2K inhibition activity for the synthesized compounds. The synthesized compound was applied to MDA-MB-231 cells in the range of various concentrations from 2.5 to 20 micromolar for 2 h treatment. The expression levels of p-EF2 (Thr56) inhibition and eEF2K activity were determined by using related antibodies such as p-EF2 (Thr56), eEF2 and eEF2K. Glyceraldehyde 3-phosphate dehydrogenase (GAPDH) was used as a loading control.
To determine the effects of the synthesized compounds in inhibiting eEF2K activity in TNBC, MDA-MB-231 cells, we performed western blot analysis at concentrations ranging from 2.5 micromolar to 20 micromolar in a dose-dependent manner. eEF2K inhibition was detected by decreased phosphorylation levels of EF2 (p-EF2-Thr-56), a direct downstream substrate of the enzyme.

| SMILES | concentration reported to inhibit eEF2K ([1]; literature [44-46]) | eEF2K inhibition (reported, in words) [1] | eEF2K inhibition potential (p-EF2 Thr56) [2] | eEF2K inhibition, reduced p-EF2 (Thr56) levels [2] | eEF2K inhibition, reduced p-EF2 (Thr56) levels ([2]; listed as compound of the invention) |
| --- | --- | --- | --- | --- | --- |
| Cc1cc(C=C2C(=O)C=CC2=O)cc(C)c1O [TX1918] | 10 µM | did not show significant eEF2K inhibition |  |  |  |
| CCc1cccc2c3c([nH]c12)C(CC)(CC(=O)O)OCC3 (racemic) [Etodolac, (R,S)-2-[1,8-diethyl-1,3,4-tetrahydropyrano [3,4-b]indol-1-yl]acetic acid] |  |  | did not show any inhibition potential |  |  |
| CCc1cccc2c3c([nH]c12)C(CC)(CC(=O)N1CCN(C)CC1)OCC3 (stereo not shown) [Inventive compound, 2-(1,8-diethyl-1,3,4,9-tetrahydropyrano [3,4-b]indol-1-yl)-1-(4-methylpiperazin-1-yl) ethan-1-one] |  |  | high inhibition potential | highest phospho-eEF2 (Thr56) inhibition | marked inhibition of eEF2K |
| CCCCCCCCCCCCCCCCn1cc[n+](Cc2ccccc2)c1C.[I-] [NH125] |  | does not inhibit EF2K but rather increases eEF2 phosphorylation |  |  |  |
